According to patent US20140295012A1, “LATENT HUMAN IMMUNODEFICIENCY VIRUS REACTIVATION” (priority 2011, published 2014):
Read-outs that look alike come from different tables or passages of the source. Where a SMILES comes first, the peptide text is derived from it. The star is where a group is joined. Cbz = O=C(OCc1ccccc1)*

Key:
Assay type in all cases: cell-based
[1] = tested on: latently HIV-1 infected J89GFP T cells; test: HIV-1 reactivation / priming in latently HIV-1 infected J89GFP T cells (GFP, flow cytometry, HTS); conditions: 10 ng/ml PMA; three J89GFP populations
Description: Flow cytometry. Infection levels in the cell cultures were monitored by flow cytometric (FCM) analysis of GFP expression. […] Cell sorting experiments were performed using a FACSAria™ Flow Cytometer (Becton&Dickinson). Data analysis was performed using either CellQuest (Becton&Dickinson) or GUAVA Express (GUAVA Technologies, Inc.).

HIV-1 LTR = test: Tat-independent activation of integrated LTR-GFP construct in NOMI reporter T cells; conditions: 24 hours
Description: (§1) FIGS. 6A-6C show HRF triggers suboptimal functional induction of NF-κB dependent gene expression. […] The HIV-1 reactivating kinetics were determined by stimulating CA5 T cells with optimal concentrations of HRF, phorbol 12-myristate 13-acetate (PMA) and tumor necrosis factor-α (TNF-α) and analyzing HIV-1 reactivation as a function of EGFP-expression over a period of 48 hours. Data for all agents are depicted as the percentage of EGFP-positive cells in the total cell population. […] To test the ability of HRF to mediate Tat-independent activation of the HIV-1 LTR, NOMI cells (HIV-1 reporter cell line with an integrated LTR-EGFP construct) were stimulated with increasing concentrations of PMA (0.01-10 ng/ml), TNF-α (0.003-30 μg/ml) and HRF supernatant (0.3-100 μl). The level of LTR-induction was then measured as EGFP-expression detectable after 24 hours as determined by flow cytometric analysis. Arrows indicate the concentrations at which the respective stimulus would have triggered full HIV-1 reactivation in the latently HIV-1 infected CA5 T cell line. […] 293T cells were transfected with several NF-κB dependent promoter constructs and then stimulated with either TNF-α (10 μg/ml) or HRF (25 μl). Promoter induction was measured as total EGFP expression. (NF-κB:pNF-κB-d2EGFP; LTR:HIV-1 LTR-GFP; IL-8:pIL-8 GFP; TNF:human TNF-GFP; MSCV:murine stem cell virus LTR driven GFP; no NF-κB responsive elements).
As the NF-κB pathway has been recognized as vital to HIV-1 activation, the ability of HRF to trigger NF-κB activation was investigated. It was initially determined that HRF had the ability to stimulate Tat independent activation of an integrated LTR-GFP construct in NOMI reporter T cells.

[2] = tested on: latently HIV-1 infected CA5 T cells
[3] = tested on: latently HIV-1 infected CA5 T cells; conditions: for priming effect on HIV-1 reactivation by sub-optimal dose of HRF: CA5 cells pretreated with increasing concentrations; for effect of higher concentrations on HIV-1 reactivation triggered by HRF or TNF-α: correlated with high levels of cytotoxicity
Description: (§2) Infection levels in the cell cultures were monitored by flow cytometric analysis of EGFP expression. Flow cytometric analysis was performed on a GUAVA EasyCyte (Millipore; Billerica, Mass.), or a LSRII (Becton & Dickinson; Franklin Lakes, N.J.).
Bacterial growth. Bacteria from various sources were isolated on TSA II agar plates containing 5% sheep blood. Bacterial isolates were then grown in RPMI 1640 medium supplemented with 10% FBS. After two days of incubation at 37° C. bacteria were pelleted and resuspended in RPMI medium to an optical density (OD600) of 8, aliquoted and frozen at −80° C. Unless otherwise indicated, Massilia timonae was grown in RPMI 1640 medium supplemented with 10% FBS. Typically, medium was inoculated with Massilia timonae from frozen stocks to an OD600 of 0.01. After 48 hours at 37° C., the culture was centrifuged at 3200 g to separate bacteria from the culture medium. Bacteria were resuspended in fresh medium to an OD600 of 8 and frozen to be used as references and stock cultures. The supernatant was then centrifuged at 10,000 g for 20 minutes and sterilized by passage through a 0.2 μm PVDF filter with low protein binding ability. HRF activity was determined by its ability to reactivate latent HIV-1 infection in CA5 cells. Only supernatants of which 6 μl reactivated infection in at least 60% of CA5 cells were used to study HRF properties.
Flow cytometry. Infection levels in the cell cultures were monitored by flow cytometric (FCM) analysis of GFP expression. FCM analysis was performed on a GUAVA EasyCyte (GUAVA Technologies, Inc.; Millipore; Billerica, Mass.) and a BD FACSCalibur or a LSRII (Becton & Dickinson; Franklin Lakes, N.J.). Cell sorting experiments were performed using a FACSAria™ Flow Cytometer (Becton&Dickinson). Data analysis was performed using either CellQuest (Becton&Dickinson) or GUAVA Express (GUAVA Technologies, Inc.).
To identify the optimal concentration of dactinomycin, CA5 T cells were pretreated with increasing concentrations of dactinomycin (0.0001 and 1 μg/ml), and then left untreated or stimulated with a sub-optimal concentration of HRF or TNF-α. Representative results for stimulation with HRF are depicted in FIG. 3. The chosen HRF concentration has only minimal HIV-1 reactivating effect by itself (15% reactivation over background). Twenty four hours after activator addition, levels of HIV-1 reactivation were determined as the percentage of GFP-positive cells using flow cytometric analysis, which allowed for the simultaneous determination of cell viability. […] Optimal pretreatment time was 18 hours. Maximum reactivation effects were seen 48 hours after stimulation.

[4] = tested on: NF-κB dependent promoters in 293T cells; test: NF-κB dependent promoter constructs transfected into 293T cells (EGFP expression)
Description: as §1
The utilized EGFP reporter virus HIV-1 NLENG1-IRES has been described elsewhere (Kutsch et al., J. Virol. 76:8776-86 (2002); Levy et al., Proc. Natl. Acad. Sci. USA 101:4204-9 (2004)). The reporter plasmid pNF-κB-d2EGFP was purchased from Clontech (Mountain View, Calif.). The LTR-GFP construct and the IL-8 reporter construct have been described earlier (Choi et al., Mol. Cell. Biol. 22:724-36 (2002)). The TNF-promoter construct was generated by cloning the human TNF-α promoter element defined by primer pair 5′-BglII; 5′-[…] […]-3′ (SEQ ID NO:2) and 3′-AgeI; 5′-[…] […]-3′ (SEQ ID NO:3) into pd2EGFP (Clontech). MSCV-GFP was generated by cloning the EGFP-gene into retroviral pMSCV-puro vector (Clontech).

[5] = tested on: chronically actively infected T cell lines (JNLG#35 and JNLG#44); test: Active HIV-1 transcription in chronically actively infected T cell lines JNLG#35 and JNLG#44 (GFP MCF); conditions: 48 hours
Description: Changes in HIV-1 transcription levels were determined after 48 hours by measuring GFP mean channel fluorescence intensity (GFP MCF). GFP MCF was plotted over the drug concentration for dactinomycin (FIG. 12A), the DNA intercalators daunorubicin (DM) (FIG. 12B) and rebeccamycin (RM) (FIG. 12C), as well as the transcription inhibitors ICRF-193 (FIG. 12D), DRB (FIG. 12E) and α-amanitin (FIG. 12F). The size of symbols indicates the respective cell viability in the sample (size range adjusted to 5-95%).
For this purpose, each of the compounds was titrated over a relevant range of concentrations on two chronically actively infected T cell lines (JNLG#35 and JNLG#44). These clonal cell lines are infected with a GFP-reporter virus. Forty eight hours after addition of the compounds, the effect of each compound on HIV-1 transcription was determined by flow cytometric analysis quantifying GFP mean channel fluorescence intensity (MCF).

[6] = tested on: latently HIV-1 infected reporter T cell lines; conditions: four latently infected reporter T cell lines; culture supernatant
Description: FIGS. 1A and 1B show culture supernatants from Massilia timonae reactivate latent HIV-1 infection. […] Untreated control cells and HRF-treated cells were subjected to flow cytometric analysis to determine enhanced green fluorescent protein (EGFP) expression as a direct and quantitative marker of HIV-1 expression 24 hours post stimulation. FSC/SSC dot plots are represented to evaluate cell viability as a function of changes in the FSC (cell size)-SSC (granularity) phenotype of the cells. FIG. 1B is a histogram showing the reproducibility of the observed HIV-1 reactivation. Three independent preparations of HRF (batches HRF1-3) on four different latently infected T cell lines (5F3, 8E12, CA5 and 12D4) were tested. The percentage of EGFP positive cells following stimulation is depicted in the histogram. Cell culture supernatants of Pseudomonas aeruginosa cultures, grown under similar conditions, were used as specificity controls.
as §2

[7] = tested on: latently HIV-1 infected monocytic THP89GFP cells; test: HIV-1 reactivation in latently infected monocytic THP89GFP cells

Compound: CCCCCCCCCCCCCC(=O)O[C@@H]1[C@@H](C)[C@@]2(O)[C@@H](C=C(CO)C[C@]3(O)C(=O)C(C)=C[C@@H]23)[C@@H]2C(C)(C)[C@]12OC(C)=O [PMA, phorbol 12-myristate 13-acetate]
- Maximum achievable HIV-1 reactivation levels [1]: 90±3%
- Tat-independent activation of integrated LTR-GFP construct (GFP expression) (HIV-1 LTR): stimulated Tat-independent activation

Compound: C=C(c1ccc(C(=O)O)cc1)c1cc2c(cc1C)C(C)(C)CCC2(C)C [bexarotene]
- effect with bryostatin on latent HIV-1 infection ([2]; bexarotene overnight pretreatment, CA5 T cells): synergistic effect
- priming of latent HIV-1 infection for reactivation by a second stimulus ([2]; pretreatment 2 hours or overnight): primed latent HIV-1 infection for reactivation by a second stimulus in a synergistic manner

Compound: O=C1[O][Pt]2([NH][C@@H]3CCCC[C@H]3[NH]2)[O]C1=O [oxaliplatin]
- priming effect on HIV-1 reactivation by sub-optimal dose of HRF [3]: not reproduced

Compound: CC(=O)O[C@@]12C[C@@H](C)[C@@]3(O)[C@@H](C=C(CO)C[C@]4(O)C(=O)C(C)=C[C@@H]34)[C@@H]1C2(C)C [prostratin]
- interaction with bexarotene [2]: interact with bexarotene to reactivate latent HIV-1 infection

Compound: CC(C)C[C@@H](C=O)NC(=O)[C@H](CC(C)C)NC(=O)[C@H](CC(C)C)NC(=O)OCc1ccccc1 [MG132] (Cbz-Leu-Leu-Leu-aldehyde)
- priming effect on HIV-1 reactivation by sub-optimal dose of HRF [3]: did not exhibit any priming effect

Compound: OC[C@H]1O[C@@H](n2cnc3cc(Cl)c(Cl)cc32)[C@H](O)[C@@H]1O [DRB, 5,6 dichloro-beta-D-ribofuranosylbenzimidazole]
- effect of higher concentrations on HIV-1 reactivation triggered by HRF or TNF-α [3]: inhibit HIV-1 reactivation

Compound: TNF-α
- reactivation ([3]; sub-optimal dose of TNF-α alone): 32%
- Tat-independent activation of integrated LTR-GFP construct (GFP expression) (HIV-1 LTR): stimulated Tat-independent activation
- GFP expression driven by NF-κB responsive promoter constructs (IL-8, TNF-α, HIV-1 LTR, three consensus NF-κB sites) [4]: efficiently induced
- GFP expression of construct under control of murine stem cell virus LTR (no NF-κB responsive element) [4]: Neither TNF-α nor HRF influenced GFP expression

Compound: CC[C@@]1(O)C(=O)OCc2c1cc1n(c2=O)Cc2cc3ccccc3nc2-1 [camptothecin]
- priming effect on HIV-1 reactivation by sub-optimal dose of HRF [3]: None of the inhibitors exerted a priming effect

Compound: CO[C@H]1[C@H](O)[C@@H](O)[C@H](n2c3c(Cl)cccc3c3c4c(c5c6cccc(Cl)c6[nH]c5c32)C(=O)NC4=O)O[C@@H]1CO [rebeccamycin]
- priming effect on HIV-1 reactivation by sub-optimal dose of HRF [3]: not reproduced
- effect on active HIV-1 infection / transcription (GFP MCF) [5]: boosted active HIV-1 transcription

Compound: lipopolysaccharide
- HIV-1 reactivation [6]: only reactivated HIV-1 infection in the latently HIV-1 infected monocytic THP89GFP cells
- HIV-1 reactivation [7]: reactivated HIV-1 infection

Compound: CC(=O)NCCCCCCNC(C)=O [HMBA, Hexamethylene bisacetamide]
- optimal concentration as HIV-1 priming agent prior to onset of drug mediated toxicities [3]: 3 to 10 mM
- HIV-1 reactivation (cells) ([2]; 3 mM): 15%
- HIV-1 reactivation (cells) ([2]; 9 mM): 35%
- compound toxicity ([2]; 9 mM): onset of compound toxicity
- HIV-1 reactivation levels ([2]; HMBA alone, overall): < 40%
- reactivation ([2]; combination of HMBA and TNF-α): 81%
- reactivation ([2]; optimal dose of HMBA alone): 27%
- priming for full reactivation by sub-optimal TNF-α ([2]; sub-toxic concentrations): relatively potent at priming latent HIV-1 infection

Compound: COc1cccc2c1C(=O)c1c(O)c3c(c(O)c1C2=O)C[C@@](O)(C(C)=O)C[C@@H]3O[C@H]1C[C@H](N)[C@H](O)[C@H](C)O1 [daunorubicin]
- priming effect on HIV-1 reactivation by sub-optimal dose of HRF [3]: not reproduced
- priming effect on HIV-1 reactivation by sub-optimal dose of HRF ([3]; listed as Dauno): did not exhibit any priming effect
- effect on active HIV-1 infection / transcription (GFP MCF) [5]: boosted active HIV-1 transcription

Compound: CC[C@H](C)[C@@H]1NC(=O)CNC(=O)[C@@H]2Cc3c([nH]c4cc(O)ccc34)[S+]([O-])C[C@@H](NC(=O)CNC1=O)C(=O)N[C@@H](CC(N)=O)C(=O)N1C[C@H](O)C[C@H]1C(=O)N[C@@H]([C@@H](C)[C@@H](O)CO)C(=O)N2 (stereo in doubt) [α-amanitin]
- priming effect on HIV-1 reactivation by sub-optimal dose of HRF [3]: None of the inhibitors exerted a priming effect
- priming effect on HIV-1 reactivation by sub-optimal dose of HRF ([3]; listed as α-aminitin): did not exhibit any priming effect
- effect of higher concentrations on HIV-1 reactivation triggered by HRF or TNF-α [3]: inhibit HIV-1 reactivation
